Results from PubChem BioAssay (NCI).
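At the GI50, growth is halved. At the TGI there is no net growth.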

Experiments:
Test in all cases: NCI anticancer screen, dose series, 384-well format
[1] = system: 786-0 renal
[2] = system: A498 renal
[3] = system: A549 NSCLC
[4] = system: ACHN renal
[5] = system: BT-549 breast
[6] = system: CAKI-1 renal
[7] = system: CCRF-CEM leukemia
[8] = system: COLO 205 colon
[9] = system: DU-145 prostate
[10] = system: EKVX NSCLC
[11] = system: HCC-2998 colon
[12] = system: HCT-116 colon
[13] = system: HCT-15 colon
[14] = system: HL-60(TB) leukemia
[15] = system: HOP-62 NSCLC
[16] = system: HOP-92 NSCLC
[17] = system: HS 578T breast
[18] = system: HT29 colon
[19] = system: IGROV1 ovarian
[20] = system: KM12 colon
[21] = system: LOX IMVI melanoma
[22] = system: M14 melanoma
[23] = system: MALME-3M melanoma
[24] = system: MCF7 breast
[25] = system: MDA-MB-231 breast
[26] = system: MDA-MB-435 melanoma
[27] = system: MDA-MB-468 breast
[28] = system: MOLT-4 leukemia
[29] = system: NCI-H226 lung
[30] = system: NCI-H23 lung
[31] = system: NCI-H322M lung
[32] = system: NCI-H460 NSCLC
[33] = system: NCI-H522 lung
[34] = system: NCI/ADR-RES ovarian
[35] = system: OVCAR-3 ovarian
[36] = system: OVCAR-4 ovarian
[37] = system: OVCAR-5 ovarian
[38] = system: OVCAR-8 ovarian
[39] = system: PC-3 prostate
[40] = system: RPMI-8226 leukemia
[41] = system: RXF 393 renal
[42] = system: SF-268 CNS
[43] = system: SF-295 CNS
[44] = system: SF-539 CNS
[45] = system: SK-MEL-28 melanoma
[46] = system: SK-MEL-5 melanoma
[47] = system: SK-OV-3 ovarian
[48] = system: SN12C renal
[49] = system: SNB-19 CNS
[50] = system: SNB-75 CNS
[51] = system: SR leukemia
[52] = system: SW-620 colon
[53] = system: T-47D breast
[54] = system: TK-10 renal
[55] = system: U251 glioblastoma
[56] = system: UACC-257 melanoma
[57] = system: UACC-62 melanoma
[58] = system: UO-31 renal

## C=CC(=O)N1CCC([C@@H]2CCNc3c(C(N)=O)c(-c4ccc(Oc5ccccc5)cc4)nn32)CC1
[1]
  GI50: 15.4 µM
  TGI: 37.7 µM
[2]
  GI50: 15.1 µM
  TGI: > 56.3 µM
[3]
  GI50: 16.2 µM
  TGI: > 52.4 µM
[4]
  GI50: 9.75 µM
  TGI: 44.6 µM
[5]
  GI50: 13.4 µM
  TGI: 26.4 µM
[6]
  GI50: 14.7 µM
  TGI: 47.7 µM
[7]
  GI50: 19.7 µM
  TGI: 35 µM
[8]
  GI50: 21.7 µM
  TGI: 45.6 µM
[9]
  GI50: 11.6 µM
  TGI: 30.6 µM
[10]
  GI50: 6.77 µM
  TGI: 31.2 µM
[11]
  GI50: 11.7 µM
  TGI: 24.2 µM
[12]
  GI50: 17.6 µM
  TGI: 32.8 µM
[13]
  GI50: 16.8 µM
  TGI: 32.1 µM
[14]
  GI50: 17.1 µM
  TGI: 31.3 µM
[15]
  GI50: 19.6 µM
  TGI: 49.6 µM
[16]
  GI50: 14.6 µM
  TGI: 29.7 µM
[17]
  GI50: 16 µM
  TGI: 30.8 µM
[18]
  GI50: 17.8 µM
  TGI: 33.4 µM
[19]
  GI50: 4.22 µM
  TGI: 16.9 µM
[20]
  GI50: 42.5 µM
  TGI: > 100 µM
[21]
  GI50: 14.9 µM
  TGI: 28.5 µM
[22]
  GI50: 18 µM
  TGI: 36.8 µM
[23]
  GI50: 15.3 µM
  TGI: 29.1 µM
[24]
  GI50: 23.7 µM
  TGI: > 69 µM
[25]
  GI50: 17.4 µM
  TGI: 33.6 µM
[26]
  GI50: 23 µM
  TGI: 53.7 µM
[27]
  GI50: 0.684 µM
  TGI: 4.09 µM
[28]
  GI50: 14.3 µM
  TGI: 27.6 µM
[29]
  GI50: 14.2 µM
  TGI: 32.3 µM
[30]
  GI50: 16.8 µM
  TGI: 31.6 µM
[31]
  GI50: 2.53 µM
  TGI: 15 µM
[32]
  GI50: 25.2 µM
  TGI: > 61.8 µM
[33]
  GI50: 3.46 µM
  TGI: 12.1 µM
[34]
  GI50: 16.9 µM
  TGI: 36.5 µM
[35]
  GI50: 9.13 µM
  TGI: 25.6 µM
[36]
  GI50: 15.5 µM
  TGI: 45.9 µM
[37]
  GI50: 48.2 µM
  TGI: > 100 µM
[38]
  GI50: 17.2 µM
  TGI: 36.1 µM
[39]
  GI50: 31.6 µM
  TGI: > 86 µM
[40]
  GI50: 16.3 µM
  TGI: 30.7 µM
[41]
  GI50: 7.6 µM
  TGI: 20.2 µM
[42]
  GI50: 15.4 µM
  TGI: 40.6 µM
[43]
  GI50: 28.5 µM
  TGI: > 80.2 µM
[44]
  GI50: 17.8 µM
  TGI: 35.7 µM
[45]
  GI50: 18 µM
  TGI: 33.6 µM
[46]
  GI50: 15.6 µM
  TGI: 30 µM
[47]
  GI50: 14.2 µM
  TGI: > 69.8 µM
[48]
  GI50: 17.6 µM
  TGI: 55 µM
[49]
  GI50: 20 µM
  TGI: 51 µM
[50]
  GI50: 17.4 µM
  TGI: 50.6 µM
[51]
  GI50: 14.2 µM
  TGI: 27.6 µM
[52]
  GI50: 18.7 µM
  TGI: 36.5 µM
[53]
  GI50: 7.05 µM
  TGI: > 77.2 µM
[54]
  GI50: 5.89 µM
  TGI: 27.3 µM
[55]
  GI50: 19.4 µM
  TGI: 40.7 µM
[56]
  GI50: 17.8 µM
  TGI: 35.3 µM
[57]
  GI50: 16.7 µM
  TGI: 34 µM
[58]
  GI50: 12.1 µM
  TGI: > 80.8 µM
